Test system: influenza A virus FM1 strain
Type: cell-based

NC(=O)c1ncn([C@@H]2O[C@H](CO)[C@@H](O)[C@H]2O)n1 [Ribavirin]
inhibitory effect on FM1 (in words): markedly inhibitory effect

Reference: patent US8551541B2, “Disinfectant making air fresh and preparation and method and use thereof” (priority 2009, dated 2013)
